Experimental data published in US20240082424A1, “CLATHRATE IN WHICH EQUOL IS INCLUDED IN CYCLODEXTRIN, EQUOL-ABSORBENT COMPOSITION CONTAINING SAID CLATHRATE, AND PRODUCTION METHOD THEREFOR” (DAICEL CORPORATION, priority 2020, published 2024).
In brackets after ≈: the same amount, converted by molar mass.

Assays:
[1] = Pharmacokinetics (PK) analysis by oral administration in rats; type: in vivo, Crl:CD (SD) rats; details: single oral dose, rat plasma, 0.5% CMC suspension, equol clathrate 100 mg/kg, equol 6.3 mg/kg
Experimental: The equol clathrate A-1 prepared in <<Preparation of Equol Clathrate>> was subjected to pharmacokinetics (PK) analysis using 6-week-old Crl:CD (SD) rats by oral administration. As a control, pharmacokinetics (PK) analysis of equol (available from LC Laboratories) alone was also performed.
Specifically, the administered dose of the equol clathrate A-1 was 100 mg/kg, whereas the dose of equol (available from LC Laboratories) was 6.3 mg/kg, an amount considered to be equivalent to 100 mg/kg of the equol clathrate A-1.
The administered dose of the equol clathrate A-1 and the administered dose of equol were each administered as a single oral dose to 3 animals/group. The test substance used for the administration sample was suspended in 0.5% CMC aqueous solution, and the administered volume was 10 mL/kg.
PK was measured using plasma, and blood was collected at 0 min, 30 min, 1 h, 2 h, 6 h, 12 h, and 24 h. After 24 hours of blood collection, the rats were euthanized.
Note that, in Table 2, “Cmax” means maximum blood concentration, “Tmax” means time to reach Cmax, and “AUC0-24” means area.

[2] = Solubility test (equol concentration dissolved in water); type: physicochemical; details: thermodynamic from solid; 300 mg dried product A-1 or 10 mg equol in 10 mL water, stirred at room temperature 2 hours, 0.2-μm filtered; read-out: concentration of equol in the solution (solubility in water)
Experimental: The dried product A-1 containing an equol clathrate prepared in <<Preparation of Equol Clathrate>> described above was subjected to a solubility test. As a control, a solubility test was performed on equol (available from LC Laboratories) alone.
Specifically, solubility tests were conducted under the following conditions.
300 mg of the dried product A-1 containing an equol clathrate was weighed and mixed with 10 mL of water. Then, the mixture was stirred at room temperature for 2 hours. This liquid was filtered through a 0.2-μm filter, resulting in a solution B-1 of the dried product A-1 containing an equol clathrate. The equol concentration of the solution B-1 was analyzed.
Meanwhile, 10 mg of equol (available from LC Laboratories) was weighed and subjected to the same operation, resulting in a liquid C-1 containing equol alone. The concentration of equol dissolved in the solution C-1 was analyzed.

Structure (SMILES): Oc1ccc([C@H]2COc3cc(O)ccc3C2)cc1 [equol]
- Cmax ([1]; Crl:CD (SD), read-out: Cmax (maximum blood concentration)): 41.6 ng/mL
- AUC0-24 (area) [1]: 363 ng·h/mL
- solubility at 2 h [2]: 100 µg/mL (≈ 413 µM)
